Data set [1] has as its system influenza virus subtype A mice-lung adaptive strain FM1. The note with it: mouse, in vivo.
In data set [2] the test system is mouse lung cancer LL2 cell. Description: LL2 lung cancer tumor-bearing mouse model. Type of data set: in vivo. The note with it: cisplatin 5 mg/kg, tail vein injection once a week. The source says: The tumor cells in this model grew rapidly, with tumor volume of 2201.9 mm^3±68.01 mm^3 on the 14th day after the inoculation and the experiment was over. […] As explanation, the cisplatin group is more likely to show efficacy in this model with very rapid cell division.

For data set [3] the following is noted: in vivo; cited from earlier work.

These results are taken from patent US12178871B2 (priority 2018, dated 2024).

`NC(=O)c1ncn([C@@H]2O[C@H](CO)[C@@H](O)[C@H]2O)n1` [Ribavirin]: in data set [1], the “X^2” value came out at 1.64.

Turning to `N.N.[Cl][Pt][Cl]` [cisplatin], in data set [2], the “T/Cb (%)” value was determined as 28.9% and the “TV at day 14” value came out at 637.79 ± 62.87 mm^3.

In the case of “polyinosinic-polycytidylic acid with poly-L-lysine and carboxymethyl cellulose [PICLC]”, in data set [3], the fever was 100%, the hypotension was 50% and the myalgia was 50%.
